Seven compounds from patent publication US20260201008A1, “SECRETIN-DERIVED GLP1R SELECTIVE AGONISTS” (GUBRA A/S, priority 2023, published 2026) can be followed below.

Where two headings read alike, the source gives them in different places. Numbered stars: 1 amine (or outer) side, 2 acyl side, 3 side chain; on linkers, the order of the positions; unused ones are H or OH. Square brackets hold non-standard residues; d marks the D form. Side chains are listed from the residue outwards. Peptide text beside a SMILES is read from it. * marks the point of attachment. C20 diacid = O=C(O)CCCCCCCCCCCCCCCCCCC(=O)*; γGlu = O=C(O)[C@H](CCC(=O)[*:2])N[*:1]; AEEA = NCCOCCOCC(=O)O; Aib = CC(C)(N)C(=O)O

Series [1] is described as follows: Turbidity of crude library peptides (absorbance at 600 nm). Format: physicochemical. Particulars: Physical stability of peptides. The procedure, abridged: (§1)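 Values reflect mean ThT emission (ex 450, em 480 nm) over 72 h at 40° C, read every 10 min after 5 min shaking at 700 rpm, plus a single initial absorbance at 600 nm for turbidity. Peptides were at 267 μM, pH 4.0 acetate or pH 7.0 phosphate (50 mM), with 4 μM ThT.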

Another series addresses GLP1R (Homo sapiens, UniProt P43220). As to the kind of experiment: hGLP1R potency, cAMP accumulation in CHO-K1 cells stably overexpressing hGLP1R. Particulars: for SCTR EC50/GLP1R EC50 ratio: selectivity for hGLP1R over hSCTR, cAMP accumulation in CHO-K1 cells. Type of series: cell-based. Further details: host or cells: CHO-K1. The procedure, abridged:
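Cells were plated in DPBS with 0.05% casein and 0.5 mM IBMX, then stimulated for 30 min at room temperature with test compound. cAMP was read by TR-FRET after one hour. EC50 came from variable-slope sigmoid nonlinear regression; purified peptides ran as 11-point 3-fold series, n=2.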

The target of the next series is SCTR (Homo sapiens, UniProt P47872). As to the kind of experiment: hSCTR potency, cAMP accumulation in CHO-K1 cells stably overexpressing hSCTR. Format: cell-based. Also noted: alternatively Euroscreen ES-712-AF; FAST-0161L; host or cells: CHO-K1. In short, it runs like this: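 Division-arrested CHO-K1 cells stably expressing hSCTR were plated in DPBS with 0.05% casein and 0.5 mM IBMX, then stimulated with test peptide for 30 min at room temperature. cAMP was read by HTRF after one hour. EC50 came from variable-slope sigmoidal nonlinear regression.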
Chain of SCTR (P47872 23-440): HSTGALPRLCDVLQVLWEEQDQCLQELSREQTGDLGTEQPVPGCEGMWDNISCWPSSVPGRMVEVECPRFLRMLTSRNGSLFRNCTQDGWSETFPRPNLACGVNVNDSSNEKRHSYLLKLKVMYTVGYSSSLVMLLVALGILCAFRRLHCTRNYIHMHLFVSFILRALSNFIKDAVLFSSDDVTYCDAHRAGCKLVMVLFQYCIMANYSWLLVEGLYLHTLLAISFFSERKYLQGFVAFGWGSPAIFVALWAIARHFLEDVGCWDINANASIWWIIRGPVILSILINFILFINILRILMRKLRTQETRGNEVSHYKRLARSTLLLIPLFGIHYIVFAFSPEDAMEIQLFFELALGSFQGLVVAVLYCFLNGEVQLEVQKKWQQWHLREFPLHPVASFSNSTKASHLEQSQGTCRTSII
On the technique in general: Changes in cAMP serve as a functional read-out for many G protein-coupled receptors.

A short description of series [2]: Fibril formation of crude library peptides (Thioflavin T). Type of series: physicochemical. Also noted: key: average ThT fluorescence emission at 480 nm (ex 450 nm), raw units. The note with it: Physical stability of peptides. In short, it runs like this:
as §1

Where [3] appears, read: cAMP accumulation, CHO-K1 cells overexpressing hGLP1R, read-out: hGLP1R pEC50 (converted).
The mark [4] stands for this setting: cAMP accumulation, CHO-K1 cells overexpressing hSCTR, read-out: hSCTR pEC50 (converted).

Chain of GLP1R (P43220 24-463): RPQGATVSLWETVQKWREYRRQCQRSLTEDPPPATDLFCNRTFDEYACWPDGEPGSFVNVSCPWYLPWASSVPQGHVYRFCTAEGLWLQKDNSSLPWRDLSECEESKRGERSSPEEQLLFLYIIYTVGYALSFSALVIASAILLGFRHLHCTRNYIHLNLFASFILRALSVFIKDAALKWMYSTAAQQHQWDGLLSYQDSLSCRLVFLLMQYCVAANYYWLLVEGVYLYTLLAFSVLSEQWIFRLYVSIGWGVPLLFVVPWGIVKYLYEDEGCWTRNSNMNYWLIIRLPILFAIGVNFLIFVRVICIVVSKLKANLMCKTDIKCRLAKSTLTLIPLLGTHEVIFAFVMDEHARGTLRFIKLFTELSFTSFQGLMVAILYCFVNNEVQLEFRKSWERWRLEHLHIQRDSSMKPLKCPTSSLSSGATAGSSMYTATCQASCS

In the case of `CC(C)C[C@H](NC(=O)[C@H](Cc1ccccc1)NC(=O)[C@H](CCCNC(=N)N)NC(=O)[C@H](CCC(N)=O)NC(=O)[C@H](CC(C)C)NC(=O)C(C)(C)NC(=O)[C@H](C)NC(=O)[C@H](CCC(=O)O)NC(=O)[C@H](CCC(=O)O)NC(=O)[C@H](CCCCNC(=O)COCCOCCNC(=O)COCCOCCNC(=O)CC[C@H](NC(=O)CCCCCCCCCCCCCCCCCCC(=O)O)C(=O)O)NC(=O)[C@H](CC(C)C)NC(=O)[C@H](Cc1c[nH]c2ccccc12)NC(=O)[C@H](CO)NC(=O)[C@@H](NC(=O)[C@H](CC(=O)O)NC(=O)[C@H](CO)NC(=O)[C@@H](NC(=O)[C@H](Cc1ccccc1)NC(=O)[C@@H](NC(=O)CNC(=O)[C@H](CCC(=O)O)NC(=O)C(C)(C)NC(=O)[C@@H](N)Cc1c[nH]cn1)[C@@H](C)O)[C@@H](C)O)C(C)C)C(=O)N[C@@H](CCC(=O)O)C(=O)N[C@@H](Cc1c[nH]cn1)C(=O)N[C@@H](CC(C)C)C(=O)N[C@H](C(N)=O)C(C)C` [compound 174] (H-H[Aib]EGTFTSDVSWLK([AEEA-AEEA-γGlu-C20 diacid])EEA[Aib]LQRFLEHLV-NH2), the “Turbidity (pH 7)” value in series [1] was 0.08. For the same compound, the EC50 is 0.0126 nM at GLP1R (setting [3]) and 100 nM at SCTR (setting [4]). Also, the “SCTR EC50/GLP1R EC50 ratio” value on GLP1R turned out to be 7022. The Fibril formation in series [2] is 3729.
On to `CC[C@H](C)[C@H](NC(=O)[C@H](Cc1ccccc1)NC(=O)[C@H](CCCNC(=N)N)NC(=O)[C@H](CCC(N)=O)NC(=O)[C@H](CC(C)C)NC(=O)[C@H](C)NC(=O)[C@H](C)NC(=O)CNC(=O)[C@H](CCC(=O)O)NC(=O)[C@H](CC(C)C)NC(=O)[C@H](CC(C)C)NC(=O)[C@@H](NC(=O)[C@H](CO)NC(=O)[C@@H](NC(=O)[C@H](CC(=O)O)NC(=O)[C@H](CO)NC(=O)[C@@H](NC(=O)[C@H](Cc1ccccc1)NC(=O)[C@@H](NC(=O)CNC(=O)[C@H](CCC(=O)O)NC(=O)C(C)(C)NC(=O)[C@@H](N)Cc1c[nH]cn1)[C@@H](C)O)[C@@H](C)O)[C@@H](C)CC)C(C)C)C(=O)N[C@@H](CCC(N)=O)C(=O)N[C@@H](Cc1c[nH]c2ccccc12)C(=O)N[C@@H](CC(C)C)C(=O)N[C@H](C(N)=O)C(C)C` [compound 116] (H-H[Aib]EGTFTSDISVLLEGAALQRFIQWLV-NH2), for which the “Turbidity (pH 7)” value in series [1] amounted to 0.42. In addition, the EC50 on GLP1R (setting [3]) was 0.0501 nM; at SCTR (setting [4]), 79.4 nM. Besides, the “SCTR EC50/GLP1R EC50 ratio” value on GLP1R was determined as 1422. In series [2], the Fibril formation is 202498.
As for `CC(C)C[C@H](NC(=O)[C@H](Cc1ccccc1)NC(=O)[C@H](CCCNC(=N)N)NC(=O)[C@H](CCC(N)=O)NC(=O)[C@@H](NC(=O)[C@H](C)NC(=O)[C@H](C)NC(=O)[C@@H](NC(=O)[C@H](CCC(=O)O)NC(=O)[C@H](CCCCNC(=O)COCCOCCNC(=O)COCCOCCNC(=O)CC[C@H](NC(=O)CCCCCCCCCCCCCCCCCCC(=O)O)C(=O)O)NC(=O)[C@H](CC(C)C)NC(=O)[C@@H](NC(=O)[C@H](CO)NC(=O)[C@@H](NC(=O)[C@H](CC(=O)O)NC(=O)[C@H](CO)NC(=O)[C@@H](NC(=O)[C@H](Cc1ccccc1)NC(=O)[C@@H](NC(=O)CNC(=O)[C@H](CCC(=O)O)NC(=O)C(C)(C)NC(=O)[C@@H](N)Cc1c[nH]cn1)[C@@H](C)O)[C@@H](C)O)C(C)C)[C@@H](C)O)[C@@H](C)O)[C@@H](C)O)C(=O)N[C@@H](CCC(=O)O)C(=O)N[C@@H](Cc1c[nH]cn1)C(=O)N[C@@H](CC(C)C)C(=O)N[C@H](C(N)=O)C(C)C` [compound 93] (H-H[Aib]EGTFTSDVSTLK([AEEA-AEEA-γGlu-C20 diacid])ETAATQRFLEHLV-NH2), the “Turbidity (pH 7)” value in series [1] is listed as 0.08. In addition, on GLP1R, the EC50 was 0.01 nM and the “SCTR EC50/GLP1R EC50 ratio” value is recorded as 36771. At SCTR, the EC50 is 316 nM. The Fibril formation in series [2] is on record as 6728.
For `CC(C)C[C@H](NC(=O)[C@H](Cc1ccccc1)NC(=O)[C@H](CCCNC(=N)N)NC(=O)[C@H](CCC(N)=O)NC(=O)[C@H](CO)NC(=O)[C@H](C)NC(=O)[C@H](C)NC(=O)[C@H](CCC(=O)O)NC(=O)[C@H](CCC(=O)O)NC(=O)[C@H](CCCCNC(=O)COCCOCCNC(=O)COCCOCCNC(=O)CC[C@H](NC(=O)CCCCCCCCCCCCCCCCCCC(=O)O)C(=O)O)NC(=O)[C@H](CC(C)C)NC(=O)[C@@H](NC(=O)[C@H](CO)NC(=O)[C@@H](NC(=O)[C@H](CC(=O)O)NC(=O)[C@H](CO)NC(=O)[C@@H](NC(=O)[C@H](Cc1ccccc1)NC(=O)[C@@H](NC(=O)CNC(=O)[C@H](CCC(=O)O)NC(=O)C(C)(C)NC(=O)[C@@H](N)Cc1c[nH]cn1)[C@@H](C)O)[C@@H](C)O)C(C)C)[C@@H](C)O)C(=O)N[C@@H](CCC(=O)O)C(=O)N[C@@H](Cc1c[nH]cn1)C(=O)N[C@@H](CC(C)C)C(=O)N[C@H](C(N)=O)C(C)C` [compound 6] (H-H[Aib]EGTFTSDVSTLK([AEEA-AEEA-γGlu-C20 diacid])EEAASQRFLEHLV-NH2), in series [1], the “Turbidity (pH 7)” value amounted to 0.09. At GLP1R (SCTR EC50/GLP1R EC50 ratio), the Selectivity is on record as 11820. In addition, the EC50 at GLP1R (cAMP accumulation, CHO-K1 cells overexpressing hGLP1R, read-out: pEC50 hGLPR1 (converted)) is 0.0316 nM; on SCTR (cAMP accumulation, CHO-K1 cells overexpressing hSCTR, read-out: pEC50 hSCTR (converted)), 316 nM. Also, in series [2], the Fibril formation came to 6489.
As for `CC(C)C[C@H](NC(=O)[C@H](Cc1ccccc1)NC(=O)[C@H](CCCNC(=N)N)NC(=O)[C@H](CCC(N)=O)NC(=O)[C@H](CC(C)C)NC(=O)C(C)(C)NC(=O)[C@H](C)NC(=O)[C@H](CCC(=O)O)NC(=O)[C@H](CCC(=O)O)NC(=O)[C@H](CCCCNC(=O)COCCOCCNC(=O)COCCOCCNC(=O)CC[C@H](NC(=O)CCCCCCCCCCCCCCCCCCC(=O)O)C(=O)O)NC(=O)[C@H](CC(C)C)NC(=O)[C@H](Cc1ccc(O)cc1)NC(=O)[C@H](CO)NC(=O)[C@@H](NC(=O)[C@H](CC(=O)O)NC(=O)[C@H](CO)NC(=O)[C@@H](NC(=O)[C@H](Cc1ccccc1)NC(=O)[C@@H](NC(=O)CNC(=O)[C@H](CC(C)C)NC(=O)C(C)(C)NC(=O)[C@@H](N)Cc1c[nH]cn1)[C@@H](C)O)[C@@H](C)O)C(C)C)C(=O)N[C@@H](CCC(=O)O)C(=O)N[C@@H](Cc1c[nH]cn1)C(=O)N[C@@H](CC(C)C)C(=O)N[C@H](C(N)=O)C(C)C` [compound 170] (H-H[Aib]LGTFTSDVSYLK([AEEA-AEEA-γGlu-C20 diacid])EEA[Aib]LQRFLEHLV-NH2), the “Turbidity (pH 7)” value in series [1] came out at 0.08. Besides, the EC50 on GLP1R (setting [3]) is 0.0251 nM; on SCTR (setting [4]), 25100 nM. At GLP1R, the “SCTR EC50/GLP1R EC50 ratio” value was found to be 873474. Further, the Fibril formation in series [2] turned out to be 3337.
On to `CC(C)C[C@H](NC(=O)[C@H](Cc1ccccc1)NC(=O)[C@H](CCCNC(=N)N)NC(=O)[C@H](CCC(N)=O)NC(=O)[C@H](CC(C)C)NC(=O)C(C)(C)NC(=O)[C@H](C)NC(=O)[C@H](CCC(=O)O)NC(=O)[C@H](CCC(=O)O)NC(=O)[C@H](CCCCNC(=O)COCCOCCNC(=O)COCCOCCNC(=O)CC[C@H](NC(=O)CCCCCCCCCCCCCCCCCCC(=O)O)C(=O)O)NC(=O)[C@H](CC(C)C)NC(=O)[C@H](Cc1ccc(O)cc1)NC(=O)[C@H](CO)NC(=O)[C@@H](NC(=O)[C@H](CC(=O)O)NC(=O)[C@H](CO)NC(=O)[C@@H](NC(=O)[C@H](Cc1ccccc1)NC(=O)[C@@H](NC(=O)CNC(=O)[C@H](Cc1ccc(O)cc1)NC(=O)C(C)(C)NC(=O)[C@@H](N)Cc1c[nH]cn1)[C@@H](C)O)[C@@H](C)O)C(C)C)C(=O)N[C@@H](CCC(=O)O)C(=O)N[C@@H](Cc1c[nH]cn1)C(=O)N[C@@H](CC(C)C)C(=O)N[C@H](C(N)=O)C(C)C` [compound 159] (H-H[Aib]YGTFTSDVSYLK([AEEA-AEEA-γGlu-C20 diacid])EEA[Aib]LQRFLEHLV-NH2), for which, in series [1], the “Turbidity (pH 7)” value is on record as 0.08. In addition, the results for the EC50 at GLP1R (setting [3]) and at SCTR (setting [4]) were 0.794 nM and 25100 nM, respectively. Moreover, the “SCTR EC50/GLP1R EC50 ratio” value at GLP1R was 34730. Also, the Fibril formation in series [2] is 5426.
In the same order, the values of `CC[C@H](C)[C@H](NC(=O)[C@H](Cc1ccccc1)NC(=O)[C@H](CCCNC(=N)N)NC(=O)[C@H](CCC(N)=O)NC(=O)[C@H](CC(C)C)NC(=O)[C@H](C)NC(=O)[C@H](C)NC(=O)CNC(=O)[C@H](CCC(=O)O)NC(=O)[C@H](CC(C)C)NC(=O)[C@H](CC(C)C)NC(=O)[C@H](CCCNC(=N)N)NC(=O)[C@H](CO)NC(=O)C(C)(C)NC(=O)[C@H](CC(=O)O)NC(=O)[C@H](CO)NC(=O)[C@@H](NC(=O)[C@H](Cc1ccccc1)NC(=O)[C@@H](NC(=O)CNC(=O)[C@H](CCC(=O)O)NC(=O)C(C)(C)NC(=O)[C@@H](N)Cc1c[nH]cn1)[C@@H](C)O)[C@@H](C)O)C(=O)N[C@@H](CCC(N)=O)C(=O)N[C@@H](Cc1c[nH]c2ccccc12)C(=O)N[C@@H](CC(C)C)C(=O)N[C@H](C(N)=O)C(C)C` [compound 104] (H-H[Aib]EGTFTSD[Aib]SRLLEGAALQRFIQWLV-NH2) are 0.12, 0.126 nM, 316 nM, 2902 and 1348.
